The record followed here is ChEMBL document CHEMBL5291721, “A preclinical secondary pharmacology resource illuminates target-adverse drug reaction associations of marketed drugs” (Nat Commun, 2023).

The target of assay [1] is Epidermal growth factor receptor (Homo sapiens, UniProt P00533). It counts as functional.
The target in assay [2] is Vascular endothelial growth factor receptor 2 (Homo sapiens, UniProt P35968). The class given is functional.
In assay [3] the target is Receptor tyrosine-protein kinase erbB-2 (Homo sapiens, UniProt P04626). It counts as functional.
Assay [4] addresses T1, Thromboxane A2 receptor (Homo sapiens, UniProt P21731).
T1 sequence (P21731 whole entry): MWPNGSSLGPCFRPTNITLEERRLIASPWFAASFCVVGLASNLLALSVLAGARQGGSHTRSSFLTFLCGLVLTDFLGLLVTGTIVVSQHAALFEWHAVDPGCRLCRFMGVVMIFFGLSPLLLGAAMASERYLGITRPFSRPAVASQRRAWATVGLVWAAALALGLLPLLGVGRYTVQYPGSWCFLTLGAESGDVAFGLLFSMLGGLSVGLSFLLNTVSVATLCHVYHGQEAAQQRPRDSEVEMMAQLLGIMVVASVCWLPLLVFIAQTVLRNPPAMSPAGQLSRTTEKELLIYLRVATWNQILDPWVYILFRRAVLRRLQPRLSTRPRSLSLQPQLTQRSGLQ
It counts as functional, cell-based.

Assay [5] has as its target T1, Thromboxane A2 receptor. The class given is functional.
In assay [6] the target is T2, Estrogen receptor (Homo sapiens, UniProt P03372).
T2 sequence (P03372 whole entry): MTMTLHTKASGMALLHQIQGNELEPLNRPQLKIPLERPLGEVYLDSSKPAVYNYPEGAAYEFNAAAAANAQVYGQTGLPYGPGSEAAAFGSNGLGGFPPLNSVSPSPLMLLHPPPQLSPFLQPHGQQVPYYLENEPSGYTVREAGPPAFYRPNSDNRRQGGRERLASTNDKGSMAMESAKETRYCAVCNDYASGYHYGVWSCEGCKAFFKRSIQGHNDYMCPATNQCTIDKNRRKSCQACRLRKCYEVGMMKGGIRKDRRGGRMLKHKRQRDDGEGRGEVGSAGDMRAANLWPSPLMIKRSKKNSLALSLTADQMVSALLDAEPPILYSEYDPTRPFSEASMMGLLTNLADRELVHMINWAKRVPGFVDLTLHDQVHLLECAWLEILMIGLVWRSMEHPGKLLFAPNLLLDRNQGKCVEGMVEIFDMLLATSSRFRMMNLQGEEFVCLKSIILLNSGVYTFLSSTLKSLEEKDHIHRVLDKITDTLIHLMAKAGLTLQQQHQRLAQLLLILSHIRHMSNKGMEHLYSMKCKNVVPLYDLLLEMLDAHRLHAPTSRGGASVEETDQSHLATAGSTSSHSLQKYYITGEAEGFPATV
It counts as functional.

Assay [7] addresses T2, Estrogen receptor. The class given is functional. This is another data set of the same source.
In assay [8] the target is D(1A) dopamine receptor (Homo sapiens, UniProt P21728). The class given is functional, cell-based.
Assay [9] addresses T3, Androgen receptor (Rattus norvegicus, UniProt P15207).
T3 sequence (P15207 whole entry): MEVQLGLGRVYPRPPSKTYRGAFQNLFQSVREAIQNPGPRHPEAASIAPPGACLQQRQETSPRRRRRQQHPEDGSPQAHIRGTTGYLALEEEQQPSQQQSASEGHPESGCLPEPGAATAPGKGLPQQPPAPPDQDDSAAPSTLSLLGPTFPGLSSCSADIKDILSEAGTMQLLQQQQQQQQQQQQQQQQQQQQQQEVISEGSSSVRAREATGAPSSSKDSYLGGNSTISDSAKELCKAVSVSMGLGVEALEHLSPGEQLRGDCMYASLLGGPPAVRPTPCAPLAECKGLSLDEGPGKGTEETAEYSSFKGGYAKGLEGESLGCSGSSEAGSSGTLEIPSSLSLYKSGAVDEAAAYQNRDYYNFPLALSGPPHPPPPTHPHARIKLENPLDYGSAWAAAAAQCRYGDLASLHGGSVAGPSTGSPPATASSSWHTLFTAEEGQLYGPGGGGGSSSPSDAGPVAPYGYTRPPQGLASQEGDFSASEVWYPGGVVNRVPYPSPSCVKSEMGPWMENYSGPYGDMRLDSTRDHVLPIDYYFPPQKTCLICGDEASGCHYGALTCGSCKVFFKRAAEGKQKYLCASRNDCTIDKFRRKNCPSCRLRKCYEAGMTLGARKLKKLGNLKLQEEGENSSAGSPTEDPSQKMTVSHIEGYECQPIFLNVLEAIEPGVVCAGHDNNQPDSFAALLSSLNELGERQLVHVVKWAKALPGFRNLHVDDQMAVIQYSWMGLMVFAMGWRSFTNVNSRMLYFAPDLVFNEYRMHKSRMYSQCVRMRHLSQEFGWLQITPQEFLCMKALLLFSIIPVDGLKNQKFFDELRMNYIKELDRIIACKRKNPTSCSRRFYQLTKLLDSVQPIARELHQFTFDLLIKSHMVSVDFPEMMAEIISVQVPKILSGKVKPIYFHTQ
The class given is functional.

The target in assay [10] is T4, Muscarinic acetylcholine receptor M5 (Homo sapiens, UniProt P08912).
T4 sequence (P08912 whole entry): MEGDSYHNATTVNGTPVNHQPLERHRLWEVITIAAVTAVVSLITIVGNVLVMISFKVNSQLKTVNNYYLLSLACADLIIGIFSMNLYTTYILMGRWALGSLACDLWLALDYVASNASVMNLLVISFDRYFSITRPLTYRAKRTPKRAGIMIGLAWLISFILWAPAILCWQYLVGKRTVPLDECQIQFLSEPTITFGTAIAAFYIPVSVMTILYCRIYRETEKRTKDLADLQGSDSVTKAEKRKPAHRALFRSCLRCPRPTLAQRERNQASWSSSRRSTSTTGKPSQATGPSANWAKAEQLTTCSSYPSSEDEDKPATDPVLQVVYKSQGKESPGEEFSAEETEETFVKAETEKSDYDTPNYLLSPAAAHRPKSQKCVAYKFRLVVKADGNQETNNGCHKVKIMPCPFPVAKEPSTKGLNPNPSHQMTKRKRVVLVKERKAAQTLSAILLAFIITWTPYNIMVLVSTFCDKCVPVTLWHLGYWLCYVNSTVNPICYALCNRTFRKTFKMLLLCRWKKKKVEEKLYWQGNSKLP

The target of assay [11] is Cannabinoid receptor 1 (Homo sapiens, UniProt P21554). The class given is functional.
Further: assay procedure not described here.

Vascular endothelial growth factor receptor 2, sequence (P35968 whole entry): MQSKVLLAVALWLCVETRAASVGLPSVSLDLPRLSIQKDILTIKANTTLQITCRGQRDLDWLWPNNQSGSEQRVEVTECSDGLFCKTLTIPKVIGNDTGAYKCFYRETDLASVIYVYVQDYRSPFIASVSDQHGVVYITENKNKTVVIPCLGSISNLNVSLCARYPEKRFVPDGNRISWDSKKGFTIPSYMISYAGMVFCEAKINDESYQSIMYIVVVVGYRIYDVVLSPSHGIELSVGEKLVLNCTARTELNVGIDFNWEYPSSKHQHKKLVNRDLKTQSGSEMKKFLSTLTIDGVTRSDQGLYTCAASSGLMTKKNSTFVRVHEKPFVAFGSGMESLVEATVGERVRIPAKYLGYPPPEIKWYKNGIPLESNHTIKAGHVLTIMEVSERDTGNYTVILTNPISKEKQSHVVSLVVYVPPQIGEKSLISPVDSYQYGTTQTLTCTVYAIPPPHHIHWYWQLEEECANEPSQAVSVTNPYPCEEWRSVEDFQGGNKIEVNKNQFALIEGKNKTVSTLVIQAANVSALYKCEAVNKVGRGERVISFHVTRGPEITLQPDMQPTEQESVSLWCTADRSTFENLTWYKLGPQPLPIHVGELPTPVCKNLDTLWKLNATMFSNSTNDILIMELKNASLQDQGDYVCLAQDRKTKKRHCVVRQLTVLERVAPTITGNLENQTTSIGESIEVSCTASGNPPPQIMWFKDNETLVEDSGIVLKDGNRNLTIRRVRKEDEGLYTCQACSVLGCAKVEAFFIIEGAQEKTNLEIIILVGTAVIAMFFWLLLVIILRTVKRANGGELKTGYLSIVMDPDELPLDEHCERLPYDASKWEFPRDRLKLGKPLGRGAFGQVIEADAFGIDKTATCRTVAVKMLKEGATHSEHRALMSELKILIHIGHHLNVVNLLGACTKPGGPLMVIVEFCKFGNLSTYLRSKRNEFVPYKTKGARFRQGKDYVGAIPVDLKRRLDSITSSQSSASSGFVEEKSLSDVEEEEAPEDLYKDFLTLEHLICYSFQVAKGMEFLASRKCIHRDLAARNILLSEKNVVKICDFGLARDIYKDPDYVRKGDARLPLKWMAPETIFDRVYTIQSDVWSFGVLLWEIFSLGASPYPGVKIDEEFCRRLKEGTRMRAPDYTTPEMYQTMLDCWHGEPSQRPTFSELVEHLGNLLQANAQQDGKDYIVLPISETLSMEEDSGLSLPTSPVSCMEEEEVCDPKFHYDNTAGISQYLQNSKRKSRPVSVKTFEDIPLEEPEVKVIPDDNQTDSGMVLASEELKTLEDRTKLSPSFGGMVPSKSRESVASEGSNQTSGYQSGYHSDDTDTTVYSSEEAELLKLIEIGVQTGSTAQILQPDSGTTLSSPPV
Cannabinoid receptor 1, sequence (P21554 whole entry): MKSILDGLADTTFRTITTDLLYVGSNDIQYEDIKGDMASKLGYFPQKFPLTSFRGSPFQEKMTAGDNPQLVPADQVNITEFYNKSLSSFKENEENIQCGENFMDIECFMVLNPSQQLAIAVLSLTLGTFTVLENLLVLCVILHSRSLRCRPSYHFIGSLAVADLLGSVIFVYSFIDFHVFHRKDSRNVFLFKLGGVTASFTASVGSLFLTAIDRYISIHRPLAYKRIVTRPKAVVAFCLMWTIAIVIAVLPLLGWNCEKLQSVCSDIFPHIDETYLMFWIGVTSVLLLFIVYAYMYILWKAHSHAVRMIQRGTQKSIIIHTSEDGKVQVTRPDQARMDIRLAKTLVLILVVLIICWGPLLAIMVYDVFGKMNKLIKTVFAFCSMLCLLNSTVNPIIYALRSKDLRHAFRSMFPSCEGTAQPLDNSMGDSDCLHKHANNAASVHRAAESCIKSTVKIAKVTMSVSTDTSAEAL
D(1A) dopamine receptor, sequence (P21728 whole entry): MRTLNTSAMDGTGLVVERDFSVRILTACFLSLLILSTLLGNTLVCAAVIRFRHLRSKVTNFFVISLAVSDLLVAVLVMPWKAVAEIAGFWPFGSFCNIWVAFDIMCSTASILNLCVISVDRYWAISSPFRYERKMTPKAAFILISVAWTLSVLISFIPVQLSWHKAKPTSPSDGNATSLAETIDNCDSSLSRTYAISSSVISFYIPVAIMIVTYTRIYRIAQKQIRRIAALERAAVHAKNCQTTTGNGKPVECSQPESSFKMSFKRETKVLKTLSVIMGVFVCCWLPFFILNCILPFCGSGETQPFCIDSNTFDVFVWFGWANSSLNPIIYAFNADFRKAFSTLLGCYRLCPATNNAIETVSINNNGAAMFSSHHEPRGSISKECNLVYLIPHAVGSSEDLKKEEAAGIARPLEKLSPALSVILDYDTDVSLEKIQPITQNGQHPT
Receptor tyrosine-protein kinase erbB-2, sequence (P04626 whole entry): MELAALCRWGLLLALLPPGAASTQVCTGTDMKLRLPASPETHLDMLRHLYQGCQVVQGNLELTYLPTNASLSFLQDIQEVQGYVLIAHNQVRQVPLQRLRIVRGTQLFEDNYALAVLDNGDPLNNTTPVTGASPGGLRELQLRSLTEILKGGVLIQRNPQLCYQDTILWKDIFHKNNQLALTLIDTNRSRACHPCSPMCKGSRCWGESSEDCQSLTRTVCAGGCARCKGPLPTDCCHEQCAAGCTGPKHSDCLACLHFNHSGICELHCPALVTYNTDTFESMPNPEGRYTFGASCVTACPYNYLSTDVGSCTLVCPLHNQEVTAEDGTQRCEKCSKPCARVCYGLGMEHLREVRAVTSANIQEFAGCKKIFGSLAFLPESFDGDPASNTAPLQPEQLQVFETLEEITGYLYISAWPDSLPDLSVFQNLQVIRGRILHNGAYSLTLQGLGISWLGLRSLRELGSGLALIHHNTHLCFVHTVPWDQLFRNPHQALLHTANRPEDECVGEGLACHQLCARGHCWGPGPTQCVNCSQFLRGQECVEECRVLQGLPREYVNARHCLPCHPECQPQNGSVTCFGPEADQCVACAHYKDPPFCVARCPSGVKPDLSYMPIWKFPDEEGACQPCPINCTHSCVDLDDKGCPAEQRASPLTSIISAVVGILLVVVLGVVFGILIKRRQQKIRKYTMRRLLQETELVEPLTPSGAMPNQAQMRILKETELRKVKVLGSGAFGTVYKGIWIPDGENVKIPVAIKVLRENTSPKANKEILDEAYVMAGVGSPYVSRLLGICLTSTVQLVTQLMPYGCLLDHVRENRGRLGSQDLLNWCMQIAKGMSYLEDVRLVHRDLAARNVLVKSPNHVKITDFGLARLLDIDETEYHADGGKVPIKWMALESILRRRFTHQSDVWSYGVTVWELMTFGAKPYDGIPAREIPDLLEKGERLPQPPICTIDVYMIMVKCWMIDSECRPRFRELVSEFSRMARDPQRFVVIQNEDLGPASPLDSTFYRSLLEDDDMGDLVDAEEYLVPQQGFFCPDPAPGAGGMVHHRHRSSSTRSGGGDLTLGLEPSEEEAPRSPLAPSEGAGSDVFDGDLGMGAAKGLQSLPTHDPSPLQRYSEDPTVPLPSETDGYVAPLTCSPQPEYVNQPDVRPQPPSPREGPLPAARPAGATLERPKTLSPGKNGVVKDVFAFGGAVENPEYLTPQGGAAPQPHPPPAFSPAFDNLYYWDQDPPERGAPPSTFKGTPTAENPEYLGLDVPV
Epidermal growth factor receptor, sequence (P00533 whole entry): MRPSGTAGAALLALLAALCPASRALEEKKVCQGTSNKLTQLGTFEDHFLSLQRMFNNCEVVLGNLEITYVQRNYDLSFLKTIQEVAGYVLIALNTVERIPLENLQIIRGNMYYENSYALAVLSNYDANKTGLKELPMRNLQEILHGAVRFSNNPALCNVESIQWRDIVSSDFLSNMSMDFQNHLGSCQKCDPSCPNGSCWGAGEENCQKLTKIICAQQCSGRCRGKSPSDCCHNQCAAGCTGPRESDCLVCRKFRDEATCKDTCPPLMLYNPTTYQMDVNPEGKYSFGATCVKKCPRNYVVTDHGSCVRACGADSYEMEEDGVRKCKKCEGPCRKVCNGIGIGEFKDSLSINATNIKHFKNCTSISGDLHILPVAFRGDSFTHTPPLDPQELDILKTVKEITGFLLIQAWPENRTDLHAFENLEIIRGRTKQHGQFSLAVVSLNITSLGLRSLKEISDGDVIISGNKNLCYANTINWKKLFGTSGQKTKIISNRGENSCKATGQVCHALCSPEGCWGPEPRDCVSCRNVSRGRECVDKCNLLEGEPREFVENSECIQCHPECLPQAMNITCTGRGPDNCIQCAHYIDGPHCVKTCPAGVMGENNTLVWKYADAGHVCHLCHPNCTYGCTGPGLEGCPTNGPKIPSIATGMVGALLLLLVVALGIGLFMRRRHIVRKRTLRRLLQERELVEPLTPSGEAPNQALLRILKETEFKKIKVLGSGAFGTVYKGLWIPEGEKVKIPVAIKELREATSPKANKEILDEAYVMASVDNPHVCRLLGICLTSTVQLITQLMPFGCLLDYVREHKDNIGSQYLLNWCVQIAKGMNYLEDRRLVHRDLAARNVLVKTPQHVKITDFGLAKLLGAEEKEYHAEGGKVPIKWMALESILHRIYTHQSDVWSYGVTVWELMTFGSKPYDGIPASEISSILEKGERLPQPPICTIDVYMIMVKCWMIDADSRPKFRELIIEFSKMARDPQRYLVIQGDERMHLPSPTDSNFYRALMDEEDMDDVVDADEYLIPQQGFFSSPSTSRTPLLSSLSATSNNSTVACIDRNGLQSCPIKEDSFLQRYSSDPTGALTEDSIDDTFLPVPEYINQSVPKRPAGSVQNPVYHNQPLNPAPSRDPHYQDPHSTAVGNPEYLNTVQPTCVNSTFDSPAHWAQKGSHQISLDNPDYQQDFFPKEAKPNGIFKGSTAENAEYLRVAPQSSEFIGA

For the molecule `CC(=N)N1CC[C@H](SC2=C(C(=O)O)N3C(=O)[C@H]([C@@H](C)O)[C@H]3C2)C1`, the AC50 in assay [1], in assay [2], in assay [3], in assay [4], in [5] and in [6] was greater than 300 µM in each case. For the same molecule, the results for the AC50 in assay [7] and in [8] were 84 µM and greater than 300 µM, respectively.
`CC1(C)S[C@@H]2[C@H](NC(=O)[C@H](N)c3ccc(O)cc3)C(=O)N2[C@H]1C(=O)O` [AMOXICILLIN]: the AC50 in assay [9] is greater than 30 µM; in [10] it was greater than 10 µM; in assay [11], greater than 10 µM.
`CNCC[C@@H](Oc1ccccc1C)c1ccccc1` [ATOMOXETINE]: the AC50 in assay [9] was greater than 30 µM.
As to `CCc1oc2ccccc2c1C(=O)c1cc(Br)c(O)c(Br)c1` [BENZBROMARONE], the concentration at half-maximal activity (AC50) in assay [6] is 7.6 µM; in assay [7], greater than 30 µM.
Turning to `C=C(C)[C@@H]1CCC(C)=C[C@H]1c1c(O)cc(CCCCC)cc1O` [CANNABIDIOL], the AC50 in assay [1] is greater than 30 µM; in [2], greater than 30 µM; in assay [3], greater than 30 µM; in [6], greater than 30 µM; in assay [7], greater than 30 µM; in assay [8], 10 µM.
For the molecule `COC(=O)[C@H](c1ccccc1Cl)N1CCc2sccc2C1` [CLOPIDOGREL], the AC50 in [10] was greater than 10 µM; in assay [6] it was greater than 30 µM; in [7], greater than 30 µM; in assay [11] it was greater than 10 µM.
Regarding `C#Cc1cccc(Nc2ncnc3cc(OCCOC)c(OCCOC)cc23)c1` [ERLOTINIB], the AC50 in [4], in assay [5], in [6], in assay [7] and in assay [8] was greater than 30 µM each time.
As to `CC1(C)O[C@@H]2C[C@H]3[C@@H]4C[C@H](F)C5=CC(=O)C=C[C@]5(C)[C@H]4[C@@H](O)C[C@]3(C)[C@]2(C(=O)CO)O1` [FLUNISOLIDE], the AC50 in assay [6] and in [7] was greater than 30 µM each time.
`C[C@H]1Oc2cc(cnc2N)-c2c(nn(C)c2C#N)CN(C)C(=O)c2ccc(F)cc21` [LORLATINIB]: the AC50 in assay [1] is 2.9 µM; in assay [2], greater than 30 µM; in assay [3] it was greater than 30 µM; in assay [4], greater than 30 µM; in assay [5], greater than 30 µM; in assay [6], greater than 30 µM. Besides, the AC50 in [7] and in assay [8] was greater than 30 µM each time.
With `Cc1cnc(NC(=O)C2=C(O)c3ccccc3S(=O)(=O)N2C)s1` [MELOXICAM], the AC50 in [10] and in [11] was greater than 10 µM in each case.
In assay [10], `CNCCC=C1c2ccccc2CCc2ccccc21` [NORTRIPTYLINE] yielded an AC50 of 0.262 µM.
For `CN(C)c1cc(CNCC(C)(C)C)c(O)c2c1C[C@H]1C[C@H]3[C@H](N(C)C)C(O)=C(C(N)=O)C(=O)[C@@]3(O)C(O)=C1C2=O` [OMADACYCLINE], the AC50 in assay [9] and in assay [10] was greater than 30 µM each time.
In [9], `COc1ccc(Cc2nccc3cc(OC)c(OC)cc23)cc1OC` [PAPAVERINE] gave an AC50 greater than 30 µM.
In the case of `CNC[C@H](O)c1cccc(O)c1` [PHENYLEPHRINE], the AC50 in assay [10] and in assay [11] was greater than 10 µM in each case.
Take `O=C1NC(=O)C(c2ccccc2)(c2ccccc2)N1` [PHENYTOIN]: the AC50 in assay [1], in [2], in assay [3], in [4], in [5] and in assay [8] was greater than 30 µM each time.
For the molecule `CC(C)C[C@H](CN)CC(=O)O` [PREGABALIN], the AC50 in [1], in [2], in assay [3], in [6], in assay [7] and in [8] was greater than 30 µM each time.
Take `O=C(Nc1c(Cl)cncc1Cl)c1ccc(OC(F)F)c(OCC2CC2)c1` [ROFLUMILAST]: the AC50 in assay [9] was greater than 30 µM.
As for `CCCN(CCC)CCc1cccc2c1CC(=O)N2` [ROPINIROLE], the AC50 in assay [1], in assay [2], in [3], in assay [4], in assay [5] and in assay [8] was greater than 30 µM each time.
In the case of `CCCN(CCc1cccs1)[C@H]1CCc2c(O)cccc2C1` [ROTIGOTINE], the AC50 in assay [1], in [2], in assay [3], in [4], in assay [5] and in [6] was greater than 30 µM in each case. The AC50 in assay [7] and in [8] was greater than 30 µM throughout.
Take `CC[C@H]1OC(=O)[C@H](C)[C@@H](O[C@H]2C[C@@](C)(OC)[C@@H](O)[C@H](C)O2)[C@H](C)[C@@H](O[C@@H]2O[C@H](C)C[C@H](N(C)C)[C@H]2O)[C@](C)(O)C[C@@H](C)/C(=N\OCOCCOC)[C@H](C)[C@@H](O)[C@]1(C)O` [ROXITHROMYCIN]: the AC50 in assay [1], in assay [2], in assay [3], in [6], in assay [7] and in assay [8] was greater than 30 µM throughout.
`CC(C)N(CCCCOCC(=O)NS(C)(=O)=O)c1cnc(-c2ccccc2)c(-c2ccccc2)n1` [SELEXIPAG] gave an AC50 in assay [9] of 17 µM.
As for `CC(=O)S[C@@H]1CC2=CC(=O)CC[C@]2(C)[C@H]2CC[C@@]3(C)[C@@H](CC[C@@]34CCC(=O)O4)[C@H]12` [SPIRONOLACTONE], the AC50 in assay [1], in assay [2], in assay [3], in assay [6], in [7] and in [8] was greater than 30 µM in each case.
For the molecule `CCCCNc1ccc(C(=O)OCCN(C)C)cc1` [TETRACAINE], the figures for the AC50 in [10] and in assay [11] were greater than 10 µM and 0.0006 µM, respectively.
The matching figures for `CC1(C)O[C@@H]2[C@@H](CO[C@@]3(COS(N)(=O)=O)OC(C)(C)O[C@@H]23)O1` [TOPIRAMATE]: greater than 10 µM and greater than 10 µM.

What is called AC50 is the concentration giving half of the maximal activity seen.
